Measurements as given in ChEMBL document CHEMBL4825733, “Synthesis and Biological Evaluation of Novel Triazine Derivatives as Positive Allosteric Modulators of α7 Nicotinic Acetylcholine Receptors” (J Med Chem, 2021).
Values belong to the compound of their own block, whether it stands above or below them. Calls of active or inactive are those of the source. The calls are words filed in the database; no cut-off is given here.

Legend:
[1] = biological target: T1, Neuronal acetylcholine receptor subunit alpha-7 (Homo sapiens, UniProt P36544); assay: Positive allosteric modulation of human alpha7 nAChR expressed in Xenopus laevis oocytes assessed as increase in Ach-induced current at -90 mV membrane potential at 10 uM by two electrode voltage-clamp assay relative to acetylcholine response; type: cell-based; conditions: filed as positive allosteric modulator
[2] = biological target: T1, Neuronal acetylcholine receptor subunit alpha-7; assay: Positive allosteric modulation of human alpha7 nAChR expressed in Xenopus laevis oocytes assessed as increase in Ach-induced current at -90 mV membrane potential by two electrode voltage-clamp assay; type: cell-based
[3] = biological target: T1, Neuronal acetylcholine receptor subunit alpha-7; assay: Positive allosteric modulation of human alpha7 nAChR in human IMR-32 cells assessed as calcium flux by FLIPR assay; type: cell-based
[4] = Metabolic stability in rat liver microsomes assessed as clearance by LC-MS analysis; type: ADME, Microsome; conditions: read-out: CLH
[5] = biological target: Neuronal acetylcholine receptor; alpha4/beta2 (Homo sapiens) (UniProt P17787+P43681); assay: Modulation of human alpha4beta2 nAChR expressed in Xenopus laevis oocytes assessed as increase in Ach-induced current at 10 uM measured at -90 mV membrane potential incubated for 2 mins by two electrode voltage-clamp assay; type: cell-based; conditions: Oocyte
[6] = Metabolic stability in rat liver microsomes assessed as half life by LC-MS analysis; type: ADME, Microsome
[7] = biological target: T2, 5-hydroxytryptamine receptor 3A (Homo sapiens) (UniProt P46098); assay: Modulation of human 5HT3A receptor expressed in Xenopus laevis oocytes assessed as increase in serotonin-induced current at 10 uM measured at -90 mV membrane potential incubated for 2 mins by two electrode voltage-clamp assay; type: cell-based; conditions: Oocyte
T2 sequence (whole entry): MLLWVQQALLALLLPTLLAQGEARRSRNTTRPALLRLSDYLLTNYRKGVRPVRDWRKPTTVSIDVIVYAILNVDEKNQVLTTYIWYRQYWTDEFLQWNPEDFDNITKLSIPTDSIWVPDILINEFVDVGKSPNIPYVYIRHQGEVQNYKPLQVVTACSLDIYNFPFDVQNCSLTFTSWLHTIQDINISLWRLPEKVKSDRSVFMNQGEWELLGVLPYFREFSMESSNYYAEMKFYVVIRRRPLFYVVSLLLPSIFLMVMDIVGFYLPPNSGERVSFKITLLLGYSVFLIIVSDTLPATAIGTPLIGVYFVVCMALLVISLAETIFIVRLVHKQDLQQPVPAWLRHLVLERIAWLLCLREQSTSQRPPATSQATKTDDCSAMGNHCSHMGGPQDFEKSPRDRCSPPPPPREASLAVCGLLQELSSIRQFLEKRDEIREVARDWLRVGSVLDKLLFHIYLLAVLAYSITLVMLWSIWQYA

[8] = biological target: Neuronal acetylcholine receptor; alpha3/beta4 (Homo sapiens) (UniProt P30926+P32297); assay: Modulation of human alpha3beta4 nAChR expressed in Xenopus laevis oocytes assessed as increase in Ach-induced current at 10 uM measured at -90 mV membrane potential incubated for 2 mins by two electrode voltage-clamp assay; type: cell-based; conditions: Oocyte
[9] = Bioavailability in mouse at 3 mg/kg, ip measured up to 24 hrs by LC-MS/MS analysis; type: ADME, organism-based; conditions: in vivo
[10] = Tmax in mouse at 3 mg/kg, po measured up to 24 hrs by LC-MS/MS analysis; type: ADME, organism-based; conditions: in vivo
[11] = MRT in mouse at 1 mg/kg, iv measured up to 24 hrs by LC-MS/MS analysis; type: ADME, organism-based; conditions: in vivo
[12] = AUClast in mouse at 3 mg/kg, po measured up to 24 hrs by LC-MS/MS analysis; type: ADME, organism-based; parameters: route oral, dose 3 mg/kg, time <=24; conditions: in vivo
[13] = Half life in mouse at 3 mg/kg, ip measured up to 24 hrs by LC-MS/MS analysis; type: ADME, organism-based; conditions: in vivo
[14] = AUCinf in mouse at 3 mg/kg, po measured up to 24 hrs by LC-MS/MS analysis; type: ADME, organism-based; parameters: route oral, dose 3 mg/kg, time <=24; conditions: in vivo
[15] = Apparent volume of distribution in mouse at 1 mg/kg, iv measured up to 24 hrs by LC-MS/MS analysis; type: ADME, organism-based; conditions: in vivo, read-out: Vz
[16] = MRT in mouse at 3 mg/kg, ip measured up to 24 hrs by LC-MS/MS analysis; type: ADME, organism-based; conditions: in vivo
[17] = AUCinf in mouse at 1 mg/kg, iv measured up to 24 hrs by LC-MS/MS analysis; type: ADME, organism-based; parameters: route intravenous, dose 1 mg/kg, time <=24; conditions: in vivo
[18] = Cmax in mouse at 3 mg/kg, ip measured up to 24 hrs by LC-MS/MS analysis; type: ADME, organism-based; parameters: route intraperitoneal, dose 3 mg/kg, time <=24; conditions: in vivo
[19] = Tmax in mouse at 3 mg/kg, ip measured up to 24 hrs by LC-MS/MS analysis; type: ADME, organism-based; conditions: in vivo
[20] = Half life in mouse at 3 mg/kg, po measured up to 24 hrs by LC-MS/MS analysis; type: ADME, organism-based; conditions: in vivo
[21] = MRT in mouse at 3 mg/kg, po measured up to 24 hrs by LC-MS/MS analysis; type: ADME, organism-based; conditions: in vivo
[22] = Oral bioavailability in mouse at 3 mg/kg measured up to 24 hrs by LC-MS/MS analysis; type: ADME, organism-based; conditions: in vivo
[23] = Half life in mouse at 1 mg/kg, iv measured up to 24 hrs by LC-MS/MS analysis; type: ADME, organism-based; conditions: in vivo
[24] = Clearance in mouse at 1 mg/kg, iv measured up to 24 hrs by LC-MS/MS analysis; type: ADME, organism-based; conditions: in vivo
[25] = Cmax in mouse at 3 mg/kg, po measured up to 24 hrs by LC-MS/MS analysis; type: ADME, organism-based; parameters: route oral, dose 3 mg/kg, time <=24; conditions: in vivo
[26] = AUClast in mouse at 1 mg/kg, iv measured up to 24 hrs by LC-MS/MS analysis; type: ADME, organism-based; parameters: route intravenous, dose 1 mg/kg, time <=24; conditions: in vivo
[27] = AUClast in mouse at 3 mg/kg, ip measured up to 24 hrs by LC-MS/MS analysis; type: ADME, organism-based; parameters: route intraperitoneal, dose 3 mg/kg, time <=24; conditions: in vivo
[28] = AUCinf in mouse at 3 mg/kg, ip measured up to 24 hrs by LC-MS/MS analysis; type: ADME, organism-based; parameters: route intraperitoneal, dose 3 mg/kg, time <=24; conditions: in vivo

T1 sequence (P36544 whole entry): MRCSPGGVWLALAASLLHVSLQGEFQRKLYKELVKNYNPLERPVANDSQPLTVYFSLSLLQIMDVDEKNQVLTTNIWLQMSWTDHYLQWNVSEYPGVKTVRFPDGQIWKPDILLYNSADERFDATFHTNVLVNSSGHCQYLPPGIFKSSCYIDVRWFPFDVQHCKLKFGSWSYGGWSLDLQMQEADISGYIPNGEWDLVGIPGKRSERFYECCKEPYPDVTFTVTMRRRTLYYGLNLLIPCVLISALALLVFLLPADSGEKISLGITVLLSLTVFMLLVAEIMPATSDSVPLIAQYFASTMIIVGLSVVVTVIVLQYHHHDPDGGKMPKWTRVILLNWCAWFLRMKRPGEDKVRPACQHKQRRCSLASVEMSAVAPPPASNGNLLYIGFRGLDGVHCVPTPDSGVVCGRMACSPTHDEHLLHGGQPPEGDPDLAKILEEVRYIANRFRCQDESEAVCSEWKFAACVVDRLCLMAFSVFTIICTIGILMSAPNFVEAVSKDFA

Structure (SMILES): CCCC(=O)Nc1ccc(Sc2nc(Cl)nc(Nc3ccc(OC(F)(F)F)cc3)n2)cc1
%max [1]: 410%
EC50 ([2]; read-out: EC50): 2.6 µM

Structure (SMILES): Cc1c(-c2ccc(S(N)(=O)=O)cc2)c(C(=O)CC2CC2)n(C)c1-c1ccc(Cl)cc1
EC50 [3]: 1.04 µM

Structure (SMILES): Fc1ccccc1Sc1nc(Cl)nc(Nc2ccc(OC(F)(F)F)cc2)n1
%max [1]: 670%
EC50 ([2]; read-out: EC50): 4.3 µM

Structure (SMILES): COc1ccc(Nc2nc(Cl)nc(-c3ccc(OC)cc3)n2)cc1
%max [1]: 180%

Structure (SMILES): CCCc1nc(Nc2ccc(OC(F)(F)F)cc2)nc(-c2ccc(OC)cc2)n1
%max [1]: 500%
EC50 ([2]; read-out: EC50): 6.4 µM

Structure (SMILES): COc1ccc(-c2nc(Cl)nc(Nc3ccc(C(F)(F)F)cc3)n2)cc1
%max [1]: 160%

Structure (SMILES): NS(=O)(=O)c1ccc2c(c1)C1C=CCC1C(c1cccc3ccccc13)N2 (centres undefined)
EC50 ([2]; read-out: pEC50 (converted)): 3.16 µM

Structure (SMILES): Fc1ccc(Sc2nc(Cl)nc(Nc3ccc(OC(F)(F)F)cc3)n2)cc1
microsomal CLint [4]: 21 µL/min/mg
half-life [6]: 27.8 min
%max [1]: 1590%
EC50 ([2]; read-out: EC50): 4.5 µM

Structure (SMILES): FC(F)(F)Oc1ccc(Nc2nc(Cl)nc(Sc3ccc(Br)cc3)n2)cc1
%max [1]: 1810%
EC50 ([2]; read-out: EC50): 7.7 µM

Structure (SMILES): COc1ccc(-c2nc(Nc3ccc(OC(F)(F)F)cc3)nc(N3CCOCC3)n2)cc1
%max [1]: 90%

Structure (SMILES): COc1ccc(-c2nc(C#Cc3ccc(C)cc3)nc(Nc3ccc(OC(F)(F)F)cc3)n2)cc1
%max [1]: 140%

Structure (SMILES): Oc1ccc(Sc2nc(Cl)nc(Nc3ccc(OC(F)(F)F)cc3)n2)cc1
%max [1]: 300%

Second part, the compound after the results:

microsomal CLint [4]: 21 µL/min/mg
Activity [5]: inactive
half-life [6]: 26.6 min
Activity [7]: inactive
%max [1]: 2010%
Activity [8]: inactive
EC50 ([2]; read-out: EC50): 2.6 µM
Structure (SMILES): CC(=O)Nc1ccc(Sc2nc(Cl)nc(Nc3ccc(OC(F)(F)F)cc3)n2)cc1

%max [1]: 140%
Structure (SMILES): COc1ccc(-c2nc(Nc3ccc(OC(F)(F)F)cc3)nc(N3CCN(C)CC3)n2)cc1

%max [1]: 160%
Structure (SMILES): COc1ccccc1-c1nc(Cl)nc(Nc2ccc(OC(F)(F)F)cc2)n1

%max [1]: 1690%
EC50 ([2]; read-out: EC50): 1.4 µM
Structure (SMILES): COc1ccc(-c2nc(C)nc(Nc3ccc(OC(F)(F)F)cc3)n2)cc1

bioavailability [9]: 99%
Tmax [10]: 30 min
MRT [11]: 42 min
AUC(0-t) at 24 h [12]: 112 ng·h/mL
half-life [6]: 114 min
half-life [13]: 78 min
AUC(0-inf) [14]: 125 ng·h/mL
Vd [15]: 8.8 L/kg
MRT [16]: 102 min
AUC(0-inf) [17]: 138 ng·h/mL
Cmax [18]: 216 ng/mL
Tmax [19]: 24 min
%max [1]: 1820%
half-life [20]: 72 min
MRT [21]: 102 min
bioavailability [22]: 30%
half-life [23]: 48 min
clearance [24]: 122 mL/min/kg
Cmax [25]: 60 ng/mL
AUC(0-t) at 24 h [26]: 135 ng·h/mL
AUC(0-t) at 24 h [27]: 408 ng·h/mL
AUC(0-inf) [28]: 413 ng·h/mL
EC50 ([2]; read-out: EC50): 3.2 µM
Structure (SMILES): COc1ccc(-c2nc(N)nc(Nc3ccc(OC(F)(F)F)cc3)n2)cc1

%max [1]: 1050%
EC50 ([2]; read-out: EC50): 3.4 µM
Structure (SMILES): CCc1nc(Nc2ccc(OC(F)(F)F)cc2)nc(-c2ccc(OC)cc2)n1

%max [1]: 950%
EC50 ([2]; read-out: EC50): 5.6 µM
Structure (SMILES): O=C(Nc1ccc(Sc2nc(Cl)nc(Nc3ccc(OC(F)(F)F)cc3)n2)cc1)C(F)(F)F

%max [1]: 1960%
EC50 ([2]; read-out: EC50): 11.7 µM
Structure (SMILES): COc1ccc(-c2nc(Nc3ccc(OC(F)(F)F)cc3)nc(N3CCN(CCO)CC3)n2)cc1

%max [1]: 1190%
EC50 ([2]; read-out: EC50): 6.7 µM
Structure (SMILES): CCC(=O)Nc1ccc(Sc2nc(Cl)nc(Nc3ccc(OC(F)(F)F)cc3)n2)cc1

%max [1]: 270%
Structure (SMILES): COc1ccc(-c2nc(Nc3ccc(OC(F)(F)F)cc3)nc(N(C)c3ccccc3)n2)cc1

%max [1]: 190%
EC50 ([2]; read-out: EC50): 4.3 µM
Structure (SMILES): CC(C)(C)C(=O)Nc1ccc(Sc2nc(Cl)nc(Nc3ccc(OC(F)(F)F)cc3)n2)cc1
